# Where two headings read alike, the source gives them in different places.
# Assays:
# [1] = mass balance study with [14C]vibegron; details: 2 and 4 hr
# [2] = drug interaction of vibegron and metoprolol succinate (CYP2D6 substrate); type: in vivo, human
# [3] = tested on: patients with overactive bladder
# Description: A placebo group was included in the main study, and a group that received tolterodine monotherapy was included in the main study and in the extension.
# [4] = tested on: men and women with overactive bladder; assay: Phase 3 study vibegron 75 mg vs placebo and tolterodine, 12 weeks, OAB: efficacy (Tables 21-25); type: in vivo, human; details: for Micturitions: Week 12 CFB Mean / Urgency Episodes: Week 12 CFB Mean / UUI: Week 12 CFB Mean: descriptive statistics; for UUI: Week 12 CFB Mean: daily UUI episodes
# Description: Enrollment of patients included individuals with OAB Wet (those with UUI, the involuntary loss of urine accompanied by urgency) and OAB Dry (those without UUI). A total of 1,518 patients were randomized across 215 study sites into one of three groups for a 12-week treatment period.
# The study consisted of a Screening Period (1 to 5 weeks), a single-blind Run-in Period (2 weeks), a randomized double-blind Treatment Period (12 weeks), and a Follow-up Period (4 weeks).
# Tolterodine ER 4 mg was the active control. […] Between the Baseline and Week 12 Visits, patients had study assessments at Week 4 and Week 8.
# For the analysis of the co-primary endpoints (change from baseline in average number of daily micturitions at Week 12 and change from baseline in average number of daily urge urinary incontinence episodes at Week 12, and placebo adjustment of each), a mixed model for repeated measure (MMRM) with restricted maximum likelihood estimation was used. This model corrects for dropout and accounts for the fact that measurements taken on the same patient over time tend to be correlated by using all available information on patients within the same covariate set to derive an estimate of the treatment effect for a dropout-free population. The analysis model for each efficacy endpoint includes terms for treatment, visit, OAB Type (Wet vs Dry), Sex (Female vs Male), Region (US vs Rest of World), baseline score, and interaction of visit by treatment.
# Primary inferences were drawn from treatment differences for the changes from baseline derived from the MMRM models at Week 12. As part of secondary objectives, the treatment differences for each post baseline visit were also derived using the same MMRM model.
# An unstructured covariance matrix was used to model the correlation among repeated measurements. The Kenward-Roger adjustment was used with restricted (or residual) maximum likelihood (REML) to make statistical inference. If the unstructured covariance model fails to converge with the default Newton-Raphson algorithm, the Fisher scoring algorithm or other appropriate methods can be used to provide initial values of the covariance parameters. In the rare event that none of the above methods yield convergence, a structured covariance would be used to model the correlation among repeated measurements.
# The change from baseline efficacy endpoints was analyzed using the same MMRM model described for co-primary endpoints.
# Analysis of the efficacy endpoints of proportion of patients with at least 75% reduction in the average number of daily UUI episodes at Week 12 and proportion of patients with 50% reduction in the average number of daily urgency episodes at Week 12 was analyzed using the Cochran-Mantel-Haenszel risk difference estimate. Missing Week 12 data was analyzed using multiple imputation. The estimated difference in the proportion of responders and 95% confidence interval for the difference was calculated using the Cochran-Mantel-Haenszel risk difference estimate stratified by OAB Type (Wet vs Dry) and Sex (Female vs Male), with weights proposed by Greenland and Robins.
# The same statistical methods that were used to analyze the co-primary and secondary efficacy endpoints were used for the exploratory analyses. Exploratory responder analyses were analyzed using the same Cochran-Mantel-Haenszel model as described above for secondary endpoints.
# men and women with OAB = assay: Phase 2b study in OAB: efficacy (voiding diary); type: in vivo, human; details: tolterodine ER 4 mg QD
# Description: Part 2 was designed to continue to assess the safety and efficacy of concomitant dosing. […] Subjects in both Part 1 and Part 2 had the option of enrolling in a 1-year extension. Participants were required to keep a voiding diary, recording the occurrence of each strong urge, total incontinence, and urge incontinence episode. Efficacy data for Part 1 and Part 2 are summarized herein.
# The total number of urgency incontinence episodes must have exceeded the total number of stress incontinence episodes for all subjects.
# Conversely, a dose dependent effect on urge incontinence or total incontinence was not observed.
# patients with OAB = assay: Phase 2b study: cardiovascular safety, orthostatic AEs, blood pressure and heart rate changes (Table 17); type: in vivo, human; details: tolterodine 4 mg
# Description: None led to discontinuation. The overall incidence of orthostatic symptoms was low.
# Small differences in the percent of subjects exceeding categorical heart rate and blood pressure thresholds for vibegron were similar to those in the tolterodine arm.
# [5] = tested on: men and women with overactive bladder; assay: Phase 3 study vibegron 75 mg: post-void residual urine volume (Tables 26-28); type: in vivo, human
# Description: The risk of acute urinary retention or morbidities related to an increase in Post-Void Residual (PVR) is a concern with antimuscarinic therapy that promotes smooth muscle relaxation by inhibiting acetylcholine-induced smooth muscle contraction. If, during contraction, the bladder cannot generate enough pressure to overcome the outlet resistance in the urethra, either because of poor detrusor contractility or profound obstruction (most commonly from BPH), acute urinary retention or incomplete emptying of the bladder may result.
# The volume of urine that remains in the bladder after voiding (PVR) is an objective measurement that may serve as a proxy for impaired ability to void.
# PVR were performed via ultrasound at the visits indicated in the Schedule of Activities.
# In addition, the data on the Post Void Residual Urine Volume (PVR) in all males and males with a medical history of BPH is shown in Tables 26 and 27, respectively.
# [6] = metoprolol 100 mg, vibegron 75 mg
# [7] = Week 12, co-primary endpoint, once-daily vibegron 75 mg or tolterodine
# [8] = Week 12, key secondary endpoint, once-daily vibegron 75 mg or tolterodine
# [9] = counts based on 3 consecutive post-baseline visits
# [10] = Males with medical history of BPH
# [11] = all males, vibegron 75 mg or tolterodine ER 4 mg QD
compound,measurement,setting,value
O=C(O)C1OC(OC(c2ccccc2)C2CCC(Cc3ccc(NC(=O)C4CCc5nccc(=O)n54)cc3)N2)C(O)C(O)C1O (stereo not shown) [M7],share of total circulating drug-related material in human plasma,[1],12-14%
"COCCc1ccc(OCC(O)CNC(C)C)cc1 (stereo not shown) [Metoprolol, metoprolol succinate]","AUC0-∞ ratio of GLS mean, metoprolol + vibegron/metoprolol alone",[2]; [6],1.40
same,"Cmax ratio of GLS mean, metoprolol + vibegron/metoprolol alone",[2]; [6],1.49
same,geometric mean Cmax and AUC in the presence of vibegron,"[2]; metoprolol succinate 100 mg, vibegron 75 mg QD",increased slightly
"Cc1ccc(O)c([C@H](CCN(C(C)C)C(C)C)c2ccccc2)c1 [Tolterodine ER, tolterodine]",Accidental overdose,[3]; ER 4 mg QD,6 (2.3) n (%)
same,Alanine aminotransferase increased,[3]; ER 4 mg QD,1 (0.4) n (%)
same,Arthralgia,[3]; ER 4 mg QD,3 (1.2) n (%)
same,Aspartate aminotransferase increased,[3]; ER 4 mg QD,0 (0.0) n (%)
same,Constipation,[3]; ER 4 mg QD,5 (1.9) n (%)
same,Diarrhea,[3]; ER 4 mg QD,9 (3.5) n (%)
same,Discontinuation due to AE,[3]; ER 4 mg QD,4 (1.6) n (%)
same,Discontinuation due to drug-related AE,[3]; ER 4 mg QD,0 n (%)
same,Dizziness,[3]; ER 4 mg QD,5 (1.9) n (%)
same,Drug-related AE,[3]; ER 4 mg QD,42 (16.3) n (%)
same,Dry eye,[3]; ER 4 mg QD,10 (3.9) n (%)
same,Dry mouth,[3]; ER 4 mg QD,22 (8.6) n (%)
same,Dysuria,[3]; ER 4 mg QD,3 (1.2) n (%)
same,Fatigue,[3]; ER 4 mg QD,6 (2.3) n (%)
same,Headache,[3]; ER 4 mg QD,9 (3.5) n (%)
same,Nasopharyngitis,[3]; ER 4 mg QD,4 (1.6) n (%)
same,Nausea,[3]; ER 4 mg QD,6 (2.3) n (%)
same,Osteoarthritis,[3]; ER 4 mg QD,0 (0.0) n (%)
same,Pain in extremity,[3]; ER 4 mg QD,1 (0.4) n (%)
same,Serious AE,[3]; ER 4 mg QD,3 (1.2) n (%)
same,Sinusitis,[3]; ER 4 mg QD,1 (0.4) n (%)
same,Urinary tract infection,[3]; ER 4 mg QD,12 (4.7) n (%)
same,≥1 AE,[3]; ER 4 mg QD,116 (45.1) n (%)
same,Serious AE,"[3]; ER 4 mg QD, listed as tolterodine",3 n (%)
same,frequency of injuries,"[3]; Phase 2, tolterodine arm vs vibegron",2.1%
same,Micturitions: Week 12 CFB Mean,[4]; Males with BPH,−1.25
same,Urgency Episodes: Week 12 CFB Mean,[4]; Males with BPH,−3.29
same,UUI: Week 12 CFB Mean,[4]; Males with BPH,−2.15
same,Micturitions: Week 12 CFB Mean,[4]; Males without BPH,−1.29
same,Urgency Episodes: Week 12 CFB Mean,[4]; Males without BPH,−2.32
same,UUI: Week 12 CFB Mean,[4]; Males without BPH,−2.05
same,Micturitions: Week 12 CFB Mean,[4]; Overall for Males,−1.28
same,Micturitions: Week 12 CFB Mean,[4]; Overall,−1.78
same,Urgency Episodes: Week 12 CFB Mean,[4]; Overall,−2.57
same,UUI: Week 12 CFB Mean,[4]; Overall,−1.75
same,"Micturitions, Week 12 LS Mean Change from Baseline (Placebo-Adjusted)",[4]; [7],−0.3
same,"UUI Episodes, Week 12 LS Mean Change from Baseline (Placebo-Adjusted)",[4]; [7],−0.4
same,"OAB-q Coping Score, Week 12 LS Mean Change from Baseline (Placebo-Adjusted)",[4]; [8],3.1
same,"Total Incontinence Episodes, Week 12 LS Mean Change from Baseline (Placebo-Adjusted)",[4]; [8],−0.5
same,"Urgency Episodes, Week 12 LS Mean Change from Baseline (Placebo-Adjusted)",[4]; [8],−0.4
same,"Volume Voided, Week 12 LS Mean Change from Baseline (Placebo-Adjusted)",[4]; [8],13.3 mL
same,"Micturitions difference from placebo in LS means, Week 8",men and women with OAB,−0.54
same,"Urgency Episodes difference from placebo in LS means, Week 8",men and women with OAB,−0.94
same,"Total Incontinence Episodes difference from placebo in LS means, Week 8",men and women with OAB; OAB Wet,−0.34
same,"Urgency Incontinence Episodes difference from placebo in LS means, Week 8",men and women with OAB; OAB Wet,−0.46
same,"DBP Change from Baseline [≥] 5 mm Hg, n/N (%)",patients with OAB; [9],30/242 (12.4) %
same,"DBP Change from Baseline [≥] 10 mm Hg, n/N (%)",patients with OAB; [9],13/242 (5.4) %
same,"DBP Change from Baseline ≥15 mm Hg, n/N (%)",patients with OAB; [9],3/242 (1.2) %
same,"HR Change from Baseline [≥] 5 mm Hg, n/N (%)",patients with OAB; [9],29/242 (12.0) %
same,"HR Change from Baseline [≥] 10 bpm, n/N (%)",patients with OAB; [9],11/242 (4.5) %
same,"HR Change from Baseline ≥15 bpm, n/N (%)",patients with OAB; [9],4/242 (1.7) %
same,"SBP Change from Baseline [≥] 5 mm Hg, n/N (%)",patients with OAB; [9],41/242 (16.9) %
same,"SBP Change from Baseline [≥] 10 mm Hg, n/N (%)",patients with OAB; [9],19/242 (7.9) %
same,"SBP Change from Baseline ≥15 mm Hg, n/N (%)",patients with OAB; [9],7/242 (2.9) %
same,"DBP Change from Baseline, Mean (95% CI) Max",patients with OAB; mean maximum from week 1 to 8,"5.19 (4.26, 6.13) mm Hg"
same,"HR Change from Baseline, Mean (95% CI) Maximum",patients with OAB; mean maximum from week 1 to 8,"5.66 (4.69, 6.63) bpm"
same,"SBP Change from Baseline, Mean (95% CI) Maximum",patients with OAB; mean maximum from week 1 to 8,"7.29 (6.01, 8.57) mm Hg"
same,"DBP Change from Baseline, Mean (95% CI) (week 1)",patients with OAB; week 1,"−0.12 (−1.10, 0.86) mm Hg"
same,"HR Change from Baseline, Mean (95% CI) (week 1)",patients with OAB; week 1,"0.68 (−0.31, 1.67) bpm"
same,"SBP Change from Baseline, Mean (95% CI) (week 1)",patients with OAB; week 1,"0.04 (−1.36, 1.43) mm Hg"
same,PVR Categories at Week 12: <100 mL,[5]; [10],71.4%
same,PVR Categories at Week 12: ≥100 mL to <200 mL,[5]; [10],28.6%
same,PVR Categories at Week 12: ≥200 mL to <350 mL,[5]; [10],0%
same,PVR Categories at Week 12: ≥350 mL,[5]; [10],0%
same,PVR Mean Change from Baseline at Week 12 (SD),[5]; [10],3.7 (50.64) mL
same,PVR Mean Change from Baseline at Week 12 (SD),[5]; [11],10.2 (44.24) mL
same,PVR category <100 mL at Week 12,[5]; [11],85.2%
same,PVR category ≥100 mL to <200 mL at Week 12,[5]; [11],11.5%
same,PVR category ≥200 mL to <350 mL at Week 12,[5]; [11],3.3%
same,PVR category ≥350 mL at Week 12,[5]; [11],0
same,PVR Categories at Week 12: <100 mL,[5]; study population as a whole,86.5%
same,PVR Categories at Week 12: ≥100 mL to <200 mL,[5]; study population as a whole,5.8%
same,PVR Categories at Week 12: ≥200 mL to <350 mL,[5]; study population as a whole,0.7%
same,PVR Categories at Week 12: ≥350 mL,[5]; study population as a whole,0%
same,PVR Mean Change from Baseline at Week 12 (SD),[5]; study population as a whole,3.1 (40.93) mL

# — patent publication US12357636B2 (Urovant Sciences GmbH, priority 2018, dated 2025)
